This series in a line: solubility in water. It is filed as physicochemical. The settings on record: compared with the parent zwitterionic compound of structural formula IV.

Counter-ions that a name gives are not always drawn.

Take `O=C(O)CC(CCCCCCc1ccc2c(n1)NCCC2)c1cncnc1` (stereo not shown) [TRIS salt, tris(hydroxymethyl)aminomethyl (“TRIS”) salt of 3-(pyrimidin-5-yl)-9-(5,6,7,8-tetrahydro-[1,8]-naphthyridin-2-yl)-nonanoic acid]: the solubility in water entry is “greater solubility in water than the parent zwitterionic compound”.

Values taken from patent US6750220B2, “Amine salt of an integrin receptor antagonist” (Merck & Co., Inc., priority 2001, dated 2004).
